Measured values from patent US20140066449A1, “DIPYRIDINIUM DERIVATIVES” (SABREPHARM LIMITED, priority 2011, published 2014).
pIC50: −log10 of the molar value. Like-named read-outs stand apart in the source and are kept apart here.

Assays:
[1] = Redox potential study, square wave voltammetry; assay type: physicochemical; settings: 0.1 mol dm-3 LiNTf2, 20° C., first scan
Method: BioAnalytical Systems CV50W potentiostat (from BAS Inc., USA)
Square wave voltammetry (4 mV step, 25 mV pulse, 10 Hz SW frequency)
3 mm diameter glassy carbon working electrode (from BAS)
3 mm diameter glassy carbon counter electrode (from BAS)
Saturated calomel reference electrode (SCE, from Sycopel Scientific Ltd., UK)
0.1 mol dm-3 lithium bis(trifluoromethanesulphonyl)imide ((LiNTf2)CAS 90076-65-6, from 3M)
Voltammograms were recorded from 0.5 V to −1.2 V in deoxygenated solutions of the Compounds.

[2] = tested on: MCF-7 Human Breastadenocarclnoma Xenograft; assay: MCF-7 xenograft model study; assay type: in vivo, mice; settings: 200 mg/kg, i.v., d 0, 2, 4, 7, 9 & 11
Excerpt: Evaluation of the Efficacy of the Compounds C & D (Examples 2 & 3 Respectively) in the MCF-7 Human Breastadenocarclnoma Xenograft Model

[3] = tested on: HT-29 colon adenocarcinoma; assay: MTT in vitro cytotoxicity, HT-29; assay type: cell-based; settings: HT-29, 10 day exposure
Method: (§1) All were stored in the dark at 4° C. An accurately weighed amount of each compound was dissolved in DMSO and Hank's Balanced Salt Solution (Sigma) according to Table 2 below:
(§2) Further dilutions were made in complete RPMI1640 cell culture medium (RPMI1640 cell culture medium supplemented with 10% foetal bovine serum, 1 mM L-glutamine, and 2 mM sodium pyruvate (all from Sigma)).
(§3) H460 non-small cell lung adenocarcinoma, HT-29 colon adenocarcinoma and MCF-7 breast adenocarcinoma (ECACC, Salisbury, Wiltshire) were used for analysis. Cells were cultured in complete RPMI1640 cell culture medium, and maintained as monolayer cultures at 37° C. in a humidified 5% CO2 environment.
(§4) Tumour cell growth inhibition was assessed using the MTT assay with a standard 96 hour plus an extended 10 day incubation. For the 96 hour assay 1×10^4 cells were inoculated into each well of a 96-well plate and incubated overnight at 37° C. in a humidified atmosphere containing 5% CO2 to give time to adhere to the wells and form a monolayer. For the 10 day incubation, 1×102 (H460 and HT-29) and 1×103 (MCF-7) cells were inoculated. The next day, culture medium was removed from each well and replaced with cell culture media for the untreated control, or media containing compound, and the plates then incubated for a further 96 hours or 10 days. […] After 96 hours or 10 days culture medium was removed and 200 μL of 0.5 mgmL-1 MTT solution (Sigma) in complete medium added to each well. Following a further 4 hours incubation, the solution was removed from each well and 150 μL of DMSO added to solubilise the formazan crystals resulting from MTT conversion. Absorbance values for the resulting solutions were read at 550 nm on a Multiskan Ex microplate reader (Thermo Fisher, Loughborough, UK) and cell survival calculated as the absorbance of treated cells divided by the control. Results are expressed in terms of IC50 values (i.e. concentration of compound required to kill 50% of cells), which were determined manually in Microsoft Excel from plots of concentration versus percentage cell survival, and all experiments were performed in triplicate.

[4] = tested on: H460 non-small cell lung adenocarcinoma; assay: MTT in vitro cytotoxicity, H460; assay type: cell-based; settings: H460, 10 day exposure
Method: as §1, §2, §3, §4

[5] = tested on: MCF-7 breast adenocarcinoma; assay: MTT in vitro cytotoxicity, MCF-7; assay type: cell-based, human; settings: MCF-7, 10 day exposure
Method: as §1, §2, §3, §4

[6] = highest concentration 30 μM, read-out: IC50 Run 1
[7] = highest concentration 100 μM, read-out: IC50 Run 2
[8] = highest concentration 100 μM, read-out: IC50 Run 3

Substance	Reduction potential 1 [1] [V vs. SCE]	Reduction potential 2 [1] [V vs. SCE]	Growth delay [2] [days]	Maximum % weight loss [2] [%]	pIC50 [3, 6]	pIC50 [3, 7]	pIC50 [3, 8]	pIC50 [4, 6]	pIC50 [4, 7]	pIC50 [4, 8]	pIC50 [5, 6]	pIC50 [5, 7]	pIC50 [5, 8]
3-((2-(2-methoxy-ethoxy)(ethoxy)n)methyl)-6,7-dihydrodipyrido[1,2-a:2′,1′-c]pyrazine-5,8-diium bistrifluoromethanesulfonate [Compound C]	−0.470	−0.803	3.1	0	< 4.52	4.09	4.11	< 4.52	< 4.00	< 4.00	< 4.52	4.01	< 4.00
3-(((2-(2-methoxyethoxy)(ethoxy)n)ethyl) hexane-1,6-diyldicarbamate)methyl)-6,7-dihydrodipyrido[1,2-a:2′,1′-c]pyrazine-5,8-diium bistrifluoromethanesulfonate [Compound D]	−0.423	−0.828	2.4	0	< 4.52	< 4.00	4.09	< 4.52	< 4.00	< 4.00	< 4.52	4.14	< 4.00
